Results published in paper PMC5688156, “The natural product carolacton inhibits folate-dependent C1 metabolism by targeting FolD/MTHFD” (Nature Communications, 2017).
Where two headings read alike, the source gives them in different places.

How the values were obtained:
[1] = tested on: HCT-116; test: Cytotoxicity screening, HCT-116 (MTT); assay type: cell-based, human; conditions: for EC50: 5 d treatment, MTT
Experimental: Half maximal effective concentrations (EC50) on human cancer cell lines were determined as described elsewhere. Human cancer cell lines were maintained as recommended by the depositor (German Collection of Microorganisms and Cell Cultures, DSMZ) and were treated for 5 d with carolacton in serial dilution. The viability of adherent cell types, HCT-116 (ACC 581), KB-3.1 (ACC-158) and KB-V.1 (ACC-149) was assessed by the addition of MTT tetrazolium salt and absorbance measurement at 570 nm. Histiocytic lymphoma U-937 cells (ACC-5) were maintained in RPMI 1640 medium and transferred into folate-free medium prior to the assay. Cell viability was determined by measuring alamar blue fluorescence emission at 590 nm. The values were referenced and EC50 values were determined by sigmoidal curve fitting. The cell lines KB-3.1 and KB-V.1 are originally derived from HeLa, whereas the latter is an MDR subclone of KB-3.1. They were used to directly compare the activity of carolacton on an mdr1 overexpressing and a sensitive cell line.

[2] = target: T1, hsMTHFD1_DC (Homo sapiens, UniProt P11586); test: hsMTHFD1_DC cyclohydrolase (CYH) enzyme assay; assay type: biochemical; conditions: hsMTHFD1 DC301
T1 construct: hsMTHFD1 DC301; His-tag (TEV-cleavable, vector pHis-TEV); made in house; host or cells: E. coli BL21 (DE3)
T1 sequence (P11586 2-291 limits assumed): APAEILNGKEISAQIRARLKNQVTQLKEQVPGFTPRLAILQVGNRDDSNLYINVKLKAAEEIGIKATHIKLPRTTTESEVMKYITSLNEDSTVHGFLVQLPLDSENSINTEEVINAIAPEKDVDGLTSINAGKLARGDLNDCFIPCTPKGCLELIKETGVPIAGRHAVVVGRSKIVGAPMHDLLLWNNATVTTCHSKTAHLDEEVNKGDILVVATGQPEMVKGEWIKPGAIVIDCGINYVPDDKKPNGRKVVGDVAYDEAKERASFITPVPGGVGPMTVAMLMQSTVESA
Experimental: (§1) (6R,S)-5,10-Methylene-5,6,7,8-tetrahydrofolic acid ((6R,S)-5,10-CH2-THF) calcium salt and (6R,S)-5,10-Methenyl-5,6,7,8-tetrahydrofolic acid ((6R,S)-5,10-CH=THF) chloride were purchased from Schircks Laboratories (Bauma, Switzerland) and used as substrates for FolD dehydrogenase and cyclohydrolase enzyme assays, respectively. Only the R-isomer, which accounts for 50% of (6R,S)-5,10-CH2-THF and (6R,S)-5,10-CH=THF, respectively, is used by the enzyme. (6R,S)-5,10-CH2-THF was dissolved in N2-spargeled basic buffer (50 mM Tris-HCl (pH 8.0), 100 mM β-mercaptoethanol) as described by Varshney et al.[25]. (6R,S)-5,10-CH=THF was dissolved in DMSO as a 100 mM stock solution.
Because FolD is a bifunctional enzyme, dehydrogenase and cyclohydrolase activities were determined for FolD enzyme kinetics, respectively. The dehydrogenase activity of FolD was assayed for its substrate 5,10-CH2-THF and cofactor NADP^+ (in the case of MTHFD2, NAD^+ was used as the cofactor) based on monitoring the formation of 5,10-CH=THF, while the cyclohydrolase activity of FolD was determined for its substrate 5,10-CH=THF by monitoring the hydrolysis of […]. The enzyme kinetics for the dehydrogenase activity of all FolDs except hsMTHFD1_DC were determined at 30 °C in 50 mM Tris-HCl (pH 7.5), 30 mM β-mercaptoethanol. The hsMTHFD1_DC dehydrogenase activity was measured in 25 mM MOPS (pH 7.3), 30 mM β-mercaptoethanol at 30 °C. […] To monitor the formation of 5,10-CH=THF, the absorbance of the reaction mixture was monitored at 350 nm in micro UV cuvettes (BRAND, Essex, Connecticut, USA). The concentration of 5,10-CH=THF produced in the reaction was determined using an extinction co-efficient of 0.0249 μM^−1 cm^−1. […] The consumption of 5,10-CH=THF was measured by recording the absorbance of the reactions at 355 nm using the TECAN Infinite 200 PRO equipped with a monochromator. […] The inhibition constants (K i) of carolacton on FolD were determined by measuring the apparent K m when adding certain amounts of carolacton to the enzyme reactions. […]

[3] = target: T2, spFolD (Streptococcus pneumoniae serotype 4, UniProt Q97RI9); test: spFolD dehydrogenase (DH) enzyme assay; assay type: biochemical, S. pneumoniae
T2 construct: His-tag (TEV-cleavable, vector pHis-TEV); made in house; host or cells: E. coli BL21 (DE3)
Experimental: as §1
Because FolD is a bifunctional enzyme, dehydrogenase and cyclohydrolase activities were determined for FolD enzyme kinetics, respectively. The dehydrogenase activity of FolD was assayed for its substrate 5,10-CH2-THF and cofactor NADP^+ (in the case of MTHFD2, NAD^+ was used as the cofactor) based on monitoring the formation of 5,10-CH=THF, while the cyclohydrolase activity of FolD was determined for its substrate 5,10-CH=THF by monitoring the hydrolysis of […]. The enzyme kinetics for the dehydrogenase activity of all FolDs except hsMTHFD1_DC were determined at 30 °C in 50 mM Tris-HCl (pH 7.5), 30 mM β-mercaptoethanol. The hsMTHFD1_DC dehydrogenase activity was measured in 25 mM MOPS (pH 7.3), 30 mM β-mercaptoethanol at 30 °C. To measure the enzyme kinetic constants for 5,10-CH2-THF, for example in the case of ecFolD, the NADP concentration was fixed at 1 mM and the concentration of 5,10-CH2-THF varied from 5 to 1500 μM (R-isomer). Similarly, to measure the kinetic constants of ecFolD for NADP^+, the concentration of 5,10-CH2-THF (R-isomer) was fixed at 1 mM and the concentration of NADP^+ varied from 10 to 1500 μM. For different FolDs, the varied concentration range of substrates could be different. […] To monitor the formation of 5,10-CH=THF, the absorbance of the reaction mixture was monitored at 350 nm in micro UV cuvettes (BRAND, Essex, Connecticut, USA). The concentration of 5,10-CH=THF produced in the reaction was determined using an extinction co-efficient of 0.0249 μM^−1 cm^−1. […] The consumption of 5,10-CH=THF was measured by recording the absorbance of the reactions at 355 nm using the TECAN Infinite 200 PRO equipped with a monochromator. […] The inhibition constants (K i) of carolacton on FolD were determined by measuring the apparent K m when adding certain amounts of carolacton to the enzyme reactions. […] To compare the inhibition effects of carolacton between the different FolDs, the half maximal inhibitory concentration (IC50) of carolacton on the same amount of enzyme was determined for FolDs involved in this study. […]

T2 sequence (Q97RI9 whole entry): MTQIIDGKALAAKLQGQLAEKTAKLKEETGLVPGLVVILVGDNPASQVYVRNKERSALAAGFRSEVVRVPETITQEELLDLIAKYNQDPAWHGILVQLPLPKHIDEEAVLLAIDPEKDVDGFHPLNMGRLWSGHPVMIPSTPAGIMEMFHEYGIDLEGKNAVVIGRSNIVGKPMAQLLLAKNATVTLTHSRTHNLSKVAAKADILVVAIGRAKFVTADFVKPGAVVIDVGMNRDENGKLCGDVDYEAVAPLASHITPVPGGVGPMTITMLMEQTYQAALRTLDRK

CO[C@H](CC(=O)O)[C@@H](C)C(=O)[C@H](C)/C=C(\C)[C@H]1OC(=O)[C@H](O)[C@H](O)/C=C/[C@H](C)CCC[C@@H]1C [carolacton]
EC50 [1]: 24600 ± 800 nM
EC50 ([1]; Homo sapiens, HCT-116, 120 h): 25000 nM
Maximum inhibition ([1]; inhibition of cell growth, 5 d): >80%
IC50 ([2]; 5 nM enzyme, read-out: IC50, carolacton inhibition on CYH activity): 19.4 nM
IC80 ([2]; 5 nM enzyme, read-out: IC80, carolacton inhibition on CYH activity): 67.5 nM
Ki ([2]; vs 5,10-CH=THF, read-out: Ki (5,10-CH=THF), carolacton inhibition on CYH activity): 20.6 nM
IC50 ([3]; 10 nM enzyme, read-out: IC50, carolacton inhibition on DH activity): 36.8 nM
IC80 ([3]; 10 nM enzyme, read-out: IC80, carolacton inhibition on DH activity): 169 nM
Ki ([3]; vs 5,10-CH2-THF, read-out: Ki (5,10-CH2-THF), carolacton inhibition on DH activity): 42.2 nM
Ki ([3]; vs NADP+, read-out: Ki (NADP+), carolacton inhibition on DH activity): 34.2 nM
